Consider three molecules from patent US9814787B2, “Luciferin amides” (University of Massachusetts, priority 2013, dated 2017).

“Also recorded” adds a separate entry of the source.

In experiment [1] the test system is FVB mice expressing luciferase in brain tissue. The experiment is described as follows: In vivo bioluminescence imaging in brains of FVB mice injected with AAV9-luc+ in the striatum. Here is the method: FVB mice were injected with AAV9-luc+ in the brain striatum. Bioluminescence assays were performed approximately nine months after AAV injection. Each luciferin amide was diluted into PBS to the indicated concentration from a 50 mM DMSO stock solution and filtered (0.22 μm) prior to intraperitoneally injection (0.1 mL per mouse). Mice were anesthetized with isoflurane (2% in 1 L/min oxygen) and images acquired on a Xenogen IVIS 100 imaging system and analyzed with Living Image software.
Certain luciferin amides described herein were tested to determine whether they would image well in live mice. For these studies, FVB mice were injected with adeno-associated virus 9 (AAV9)-luciferase constructs into the brain striatum.
Bioluminescence imaging (BLI) in the brain is more challenging than imaging in the rest of the organism, in part because a luciferase substrate (i.e., a luciferin) must cross the blood-brain barrier. Therefore, the ability of a synthetic luciferin (i.e., Compound 9's corresponding luciferin (CycLuc1)) to allow bioluminescence imaging in these mice, as compared to the native firefly luciferase substrate (i.e., D-luciferin) was first tested. Specifically, each substrate was injected intraperitoneally (IP) in PBS at a volume of 0.1 mL, D-luciferin being at a concentration of 100 mM and CycLuc1 being at a concentration of 5 mM. […] CycLuc1 was then injected at a 320-fold lower dose (0.06 mL of 0.5 mM) than D-luciferin.
Specifically, Compound 9 (i.e., CycLuc1 amide) was injected at 0.5 mM in 0.5% DMSO/PBS (0.06 mL).
In this figure, mice in the top row were treated with luciferin amides in the amounts indicated in the figure, and the mice in the bottom row were the same mice that were imaged one day later using a standard dose of D-luciferin.

The target of experiment [2] is R218K mutant firefly luciferase (Photinus pyralis, UniProt P08659, R218K). The experiment is described as follows: In vitro FAAH assay in presence of luciferase inhibitor 2-(4′-methoxyphenyl)benzothiazole. It counts as biochemical. The following applies: 50 μM luciferase inhibitor, 50 μM luciferin amide. Here is the method: (§1) Luciferin amides (50 μM) were treated with FAAH and FAAH buffer (Cayman Chemical) in the presence or absence of 50 μM FAAH inhibitor URB-597 or 50 μM luciferase inhibitor 2-(4′-methoxyphenyl)benzothiazole. After 10 minutes at room temperature, R218K mutant firefly luciferase was added at a concentration of 3 μg/mL and bioluminescence was detected on a Turner Veritas luminometer.
Chain of R218K mutant firefly luciferase (P08659 whole entry R218K): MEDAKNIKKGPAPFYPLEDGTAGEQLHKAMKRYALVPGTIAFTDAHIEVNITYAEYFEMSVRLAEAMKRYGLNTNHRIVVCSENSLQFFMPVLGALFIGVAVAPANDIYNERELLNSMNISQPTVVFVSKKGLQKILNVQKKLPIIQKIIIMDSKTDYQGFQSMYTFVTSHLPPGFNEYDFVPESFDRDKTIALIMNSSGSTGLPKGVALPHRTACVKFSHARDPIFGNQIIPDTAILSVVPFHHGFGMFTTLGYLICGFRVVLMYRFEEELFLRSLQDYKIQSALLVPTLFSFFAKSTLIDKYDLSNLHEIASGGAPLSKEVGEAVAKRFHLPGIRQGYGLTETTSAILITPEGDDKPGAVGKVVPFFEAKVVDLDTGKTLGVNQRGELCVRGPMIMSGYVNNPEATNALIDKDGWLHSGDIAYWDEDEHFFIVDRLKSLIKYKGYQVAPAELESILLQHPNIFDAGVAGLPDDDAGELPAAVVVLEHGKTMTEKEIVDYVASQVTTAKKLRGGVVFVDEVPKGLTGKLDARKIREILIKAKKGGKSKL
Four luciferin amides (50 μM), i.e., Compounds 1, 9, 10, and 25, were treated with a buffer alone, a buffer containing FAAH, a buffer containing FAAH+50 μM URB-597 (i.e., a FAAH inhibitor), or a buffer containing FAAH+50 μM luciferase inhibitor 2-(4′-methoxyphenyl)benzothiazole. After 10 minutes at room temperature, R218K luciferase was added at a concentration of 3 μg/mL and bioluminescence was detected on a Turner Veritas. […] These bioluminescence signals were inhibited by more than 100-fold by treatment with the FAAH inhibitor URB-597.

For experiment [3], the target named is T1, FAAH (Homo sapiens, UniProt O00519).
T1 construct: purchased Cayman Chemical
T1 sequence (O00519 1-579): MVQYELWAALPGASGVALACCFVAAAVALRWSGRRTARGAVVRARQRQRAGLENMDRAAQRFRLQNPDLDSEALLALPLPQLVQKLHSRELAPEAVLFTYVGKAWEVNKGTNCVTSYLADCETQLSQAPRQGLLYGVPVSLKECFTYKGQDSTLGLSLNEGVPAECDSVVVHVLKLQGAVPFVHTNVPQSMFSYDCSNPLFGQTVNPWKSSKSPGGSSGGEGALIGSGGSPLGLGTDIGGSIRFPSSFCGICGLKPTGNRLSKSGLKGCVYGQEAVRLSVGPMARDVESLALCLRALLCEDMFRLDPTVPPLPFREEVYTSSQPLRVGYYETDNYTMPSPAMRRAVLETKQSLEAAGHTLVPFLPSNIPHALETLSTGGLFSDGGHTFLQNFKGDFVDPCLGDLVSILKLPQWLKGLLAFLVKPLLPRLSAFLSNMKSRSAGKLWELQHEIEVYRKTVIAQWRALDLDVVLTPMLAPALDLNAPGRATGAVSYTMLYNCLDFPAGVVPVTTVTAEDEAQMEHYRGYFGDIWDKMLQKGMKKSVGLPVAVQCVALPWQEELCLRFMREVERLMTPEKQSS
The experiment is described as follows: In vitro FAAH assay: luciferin amide treated with recombinant FAAH, then R218K luciferase, bioluminescence. It counts as biochemical. The following applies: 50 μM luciferin amide; for increase in bioluminescence signal on addition of FAAH versus buffer: 10 minutes at room temperature, R218K luciferase 3 μg/mL; for effect of ten-fold dilution of FAAH on bioluminescent signal: FAAH vs FAAH 1:10, one hour at room temperature. Here is the method:
Recombinant FAAH, FAAH assay buffer, and FAAH inhibitors URB-597, PF-750, and PF-3845 were purchased from Cayman Chemical.
Bioluminescence assays were performed in either a Turner Veritas luminometer or a Xenogen IVIS-100 imaging system. For Veritas experiments, white 96-well plates were used (Costar 3912). For IVIS experiments, black 96-well plates were used (Costar 3915).
as §1
Four luciferin amides (50 μM), i.e., Compounds 1, 9, 10, and 25, were treated with a buffer alone, a buffer containing FAAH, a buffer containing FAAH+50 μM URB-597 (i.e., a FAAH inhibitor), or a buffer containing FAAH+50 μM luciferase inhibitor 2-(4′-methoxyphenyl)benzothiazole. After 10 minutes at room temperature, R218K luciferase was added at a concentration of 3 μg/mL and bioluminescence was detected on a Turner Veritas.
(§2) Three luciferin amides (50 μM), i.e., Compounds 2, 9, and 25, were treated with a buffer alone, a buffer containing FAAH, a buffer containing FAAH 1:10 (i.e., a ten-fold dilution of FAAH), a buffer containing pig liver esterase (PLE), or a buffer containing PLE 1:10 (i.e., a ten-fold dilution of PLE). After one hour at room temperature, R218K luciferase was added at a concentration of 3 μg/mL and bioluminescence was detected on a Turner Veritas.

Experiment [4] relates to pig liver esterase (PLE). The experiment is described as follows: Treatment of luciferin amides with pig liver esterase, then R218K luciferase, bioluminescence. It counts as biochemical. Particulars: 50 μM luciferin amide, PLE and PLE 1:10, one hour at room temperature. Here is the method: as §2
The test system of experiment [5] is live CHO cells expressing R218K luciferase. The experiment in a line: Intact cell FAAH assay, light emission from live CHO cells expressing R218K luciferase. It counts as cell-based, Chinese hamster. Here is the method: (§3) Chinese hamster ovary-K1 (CHO-K1) cells were grown in a CO2 incubator at 37° C. with 5% CO2 and were cultured in F-12K Nutrient Mixture (GIBCO) supplemented with 10% fetal bovine serum and 100 U/mL penicillin/streptomycin.
(§4) Wild-type and R218K mutant luciferases were cloned into the BamHI-NotI site of pCDNA 3.1 and transiently transfected into CHO-K1 cells with Lipofectamine 2000 in 96-well tissue culture-treated plates for intact cell assays, or 6-well plates for lysed cell assays. For intact cells, 0.075 μg plasmid/well was transfected; for lysed cells, 2.25 μg plasmid/well was transfected.
[…] The cells were incubated for one hour in the CO2 incubator at 37° C. Cells were then washed with Hank's balanced salt solution (HBSS) and overlaid with 60 μL a luciferin amide substrate in HBSS. Imaging assays were performed 3 minutes after substrate addition, with final substrate concentrations ranging from 0.122 to 250 μM.
Seven luciferin amides, i.e., Compounds 1-4, 9, 10, and 25, were tested in live CHO cells expressing R218K luciferase at various concentrations (i.e., 0.12 μM, 0.25 μM, 0.5 μM, 1 μM, 2 μM, 4 μM, 8 μM, 16 μM, 31 μM, 62 μM, 125 μM, and 250 μM).
(§5) Compound 25 and Compound 10, as well as their corresponding luciferins (i.e., D-Luciferin and CycLuc2, respectively), were tested in live CHO cells expressing wild-type (WT) luciferase or R218K (RK) luciferase at various concentrations (i.e., 0.125 μM, 0.25 μM, 0.5 μM, 1 μM, 2 μM, 4 μM, 8 μM, 16 μM, 31 μM, 62 μM, 125 μM, and 250 μM).

Experiment [6] deals with live CHO cells expressing wild-type (WT) luciferase. The experiment is described as follows: Intact cell FAAH assay, light emission from live CHO cells expressing wild-type luciferase. It is filed as cell-based, Chinese hamster. Particulars: all concentration levels. Here is the method: as §3, §4
Medium was removed from transfected CHO cells and replaced with 60 μL Optimem with or without a FAAH inhibitor (10 μM). The cells were incubated for one hour in the CO2 incubator at 37° C. Cells were then washed with Hank's balanced salt solution (HBSS) and overlaid with 60 μL a luciferin amide substrate in HBSS. Imaging assays were performed 3 minutes after substrate addition, with final substrate concentrations ranging from 0.122 to 250 μM.
as §5

Setting [7] is: 0.06 mL of 0.5 mM in 0.5% DMSO/PBS.

In the case of `NC(=O)[C@H]1CSC(c2nc3cc4c(cc3s2)NCC4)=N1` [Compound 9, (S)-4,5-dihydro-2-(6,7-dihydro-5H-thiazolo[4,5-f]indol-2-yl)thiazole-4-carboxamide], in experiment [1] (setting [7]), the “light emission relative to an equivalent dose of CycLuc1” value is “exceeded that obtained from an equivalent dose of CycLuc1 itself” and the “light emission relative to the 5 mM CycLuc1 dose” value was “nearly equaling to the light emission obtained from the 5 mM CycLuc1 dose”. In addition, in experiment [1] (0.06 mL of 0.5 mM, 320-fold lower dose), the “brain bioluminescence signal relative to D-luciferin (0.1 mL of 100 mM)” value is “over an order of magnitude greater”. For the same molecule, in experiment [2], the “inhibition of the signal by luciferase inhibitor 2-(4′-methoxyphenyl)benzothiazole” value is 2.3 fold. Besides, in experiment [3], the “increase in bioluminescence signal on addition of FAAH versus buffer” value (“increase in bioluminescence signal” below) is reported as 8972 fold and the “effect of ten-fold dilution of FAAH on bioluminescent signal” value is given as “corresponding reduction in the intensity of the bioluminescent signal”. For the same molecule, in experiment [4], the “bioluminescence signal after treatment with PLE” value is “failed to elicit a bioluminescence signal”.
For the molecule `CN1CCc2cc3nc(C4=N[C@@H](C(N)=O)CS4)sc3cc21` [Compound 10, (S)-4,5-dihydro-2-(6,7-dihydro-5-methyl-5H-thiazolo[4,5-f]indol-2-yl)thiazole-4-carboxamide], the “effect of FAAH inhibitors URB-597, PF-750 and PF-3845 on light output” value in experiment [5] (50 μM FAAH inhibitor) is reported as “complete inhibition”. For the same molecule, the “light emission relative to the corresponding luciferin (CycLuc2)” value in experiment [5] (all concentrations tested, 0.12 to 250 μM) is “greater light emission than its corresponding luciferin; also recorded: greater light output than cells treated with Compound 10's corresponding luciferin”. In experiment [5] (concentrations above 30 μM), the “light output relative to other substrate-luciferase combinations” value is “only exceeded by cells expressing the wild-type luciferase and treated with D-luciferin”. The “light emission relative to other substrate-luciferase combinations” value in experiment [5] (substrate concentrations below 30 μM) is “higher light emission than all other substrate-luciferase combinations”. Moreover, in experiment [1] (doses 200-fold and 1000-fold lower than standard D-luciferin dose), the “bioluminescence signal higher than standard D-luciferin imaging conditions” value was found to be 10 fold. For the same molecule, the “increase in bioluminescence signal” value in experiment [3] is given as 139 fold. Also, the “light output relative to the corresponding luciferin (CycLuc2)” value in experiment [6] was “greater light output than cells treated with Compound 10's corresponding luciferin”.
Turning to `NC(=O)[C@H]1CSC(c2nc3ccc(O)cc3s2)=N1` [Compound 25, (S)-4,5-dihydro-2-(6-hydroxybenzothiazol-2-yl)thiazole-4-carboxamide], the “light emission in brains of live mice (qualitative)” value in experiment [1] (mouse, in vivo) is “relatively weak light emission”. Also, in experiment [2], the “inhibition of the signal by luciferase inhibitor 2-(4′-methoxyphenyl)benzothiazole” value amounted to 14.5 fold. Moreover, in experiment [3], the “increase in bioluminescence signal” value is 269 fold and the “effect of ten-fold dilution of FAAH on bioluminescent signal” value is listed as “corresponding reduction in the intensity of the bioluminescent signal”. In addition, in experiment [4], the “bioluminescence signal after treatment with PLE” value was “failed to elicit a bioluminescence signal”.
